Test results taken from patent US5965578A, “Inhibitors of farnesyl-protein transferase” (Merck & Co., Inc., priority 1997, dated 1999).
Structures can show the parent of a compound that is named as a salt. Where two headings read alike, the source gives them in different places.

Molecular target: T1, human FPTase (Homo sapiens, UniProt P49354+P49356)
T1 construct: made in house
Experiment: In vitro inhibition of ras farnesyl transferase (human FPTase assay)
Format: biochemical
Description: Assays of farnesyl-protein transferase. […] Reactions were initiated with FPTase and stopped with 1 ml of 1.0 M HCL in ethanol. […] Purified compounds were dissolved in 100% dimethyl sulfoxide (DMSO) and were diluted 20-fold into the assay. Percentage inhibition is measured by the amount of incorporation of radioactivity in the presence of the test compound when compared to the amount of incorporation in the absence of the test compound.
Human FPTase activity was assayed as described above with the exception that 0.1% (w/v) polyethylene glycol 20,000, 10 μM ZnCl2 and 100 nM Ras-CVIM were added to the reaction mixture. Reactions were performed for 30 min., stopped with 100 μl of 30% (v/v) trichloroacetic acid (TCA) in ethanol and processed as described above for the bovine enzyme.

| SMILES | IC50 [µM] | IC50 (human FPTase, 100 nM Ras-CVIM, [3H]-FPP, 30 min, read-out: IC50 of inhibitory activity against human FPTase) [µM] |
| --- | --- | --- |
| N#Cc1ccc(Cc2cncn2CC2CCN(c3ccccc3)C(=O)C2)cc1 (centres unmarked) [Example 1, 4-[5-(4-Cyanobenzyl)imidazol-1-ylmethyl]-1-phenyl-2-piperidinone hydrochloride] | ≤ 10 |  |
| CCOC(=O)C1(Cc2cccc(C)c2)CCN(Cc2cncn2Cc2ccc(C#N)cc2)CC1=O (centres unmarked) [Example 6, Ethyl 1-[3-(4-cyanobenzyl)-3H-imidazol-4-ylmethyl]-3-oxo-4-(3-methylbenzyl)piperidine-4-carboxylate trifluoroacetate salt] |  | ≤ 10 |
